Columns and labels:
[1] = molecular target: Protein mono-ADP-ribosyltransferase PARP4 (Homo sapiens, UniProt Q9UKK3); experiment: Inhibition of N-terminal His-tagged human ARTD4 (250 to 565 residues) expressed in Escherichia coli Rosetta2 (DE3) using TCEP as substrate after 2.5 hrs in presence of NAD+
[2] = molecular target: Protein mono-ADP-ribosyltransferase PARP9 (Homo sapiens) (UniProt Q8IXQ6)
Description: Stabilization of human ARTD9 expressed in Escherichia coli assessed as change in melting temperature at 100 uM by SYPRO Orange-dye based differential scanning fluorimetric method

[3] = molecular target: T1, Protein mono-ADP-ribosyltransferase PARP15 (Homo sapiens, UniProt Q460N3); experiment: Inhibition of N-terminal His-tagged human ARTD7 (482 to 678 residues) expressed in Escherichia coli Rosetta2 (DE3) using SRPK2 as substrate after 3 hrs in presence of NAD+
T1 sequence (Q460N3 whole entry): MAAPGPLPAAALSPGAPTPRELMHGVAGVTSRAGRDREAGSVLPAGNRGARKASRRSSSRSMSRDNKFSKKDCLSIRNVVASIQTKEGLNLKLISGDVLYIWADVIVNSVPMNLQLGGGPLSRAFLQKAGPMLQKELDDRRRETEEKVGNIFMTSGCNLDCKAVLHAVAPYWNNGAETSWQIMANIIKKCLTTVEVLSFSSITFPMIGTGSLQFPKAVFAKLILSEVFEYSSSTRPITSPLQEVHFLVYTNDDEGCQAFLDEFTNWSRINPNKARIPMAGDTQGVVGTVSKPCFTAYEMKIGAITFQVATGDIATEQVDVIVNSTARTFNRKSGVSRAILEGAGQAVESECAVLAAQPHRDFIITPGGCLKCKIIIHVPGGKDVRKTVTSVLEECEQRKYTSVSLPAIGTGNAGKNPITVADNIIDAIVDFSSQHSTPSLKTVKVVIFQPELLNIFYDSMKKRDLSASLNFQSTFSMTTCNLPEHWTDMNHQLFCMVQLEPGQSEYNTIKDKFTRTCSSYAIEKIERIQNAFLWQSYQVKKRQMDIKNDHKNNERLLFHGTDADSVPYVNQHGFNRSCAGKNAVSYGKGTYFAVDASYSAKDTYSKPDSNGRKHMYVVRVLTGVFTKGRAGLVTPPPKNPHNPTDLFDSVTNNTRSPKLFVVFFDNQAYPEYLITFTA

[4] = molecular target: T2, Poly [ADP-ribose] polymerase tankyrase-2 (Homo sapiens, UniProt Q9H2K2); experiment: Inhibition of N-terminal His-tagged Z-basic-fused human ARTD6 (873 to 1161 residues) expressed in Escherichia coli Rosetta2 (DE3) using TCEP as substrate after 18 hrs in presence of NAD+
T2 sequence (Q9H2K2 whole entry): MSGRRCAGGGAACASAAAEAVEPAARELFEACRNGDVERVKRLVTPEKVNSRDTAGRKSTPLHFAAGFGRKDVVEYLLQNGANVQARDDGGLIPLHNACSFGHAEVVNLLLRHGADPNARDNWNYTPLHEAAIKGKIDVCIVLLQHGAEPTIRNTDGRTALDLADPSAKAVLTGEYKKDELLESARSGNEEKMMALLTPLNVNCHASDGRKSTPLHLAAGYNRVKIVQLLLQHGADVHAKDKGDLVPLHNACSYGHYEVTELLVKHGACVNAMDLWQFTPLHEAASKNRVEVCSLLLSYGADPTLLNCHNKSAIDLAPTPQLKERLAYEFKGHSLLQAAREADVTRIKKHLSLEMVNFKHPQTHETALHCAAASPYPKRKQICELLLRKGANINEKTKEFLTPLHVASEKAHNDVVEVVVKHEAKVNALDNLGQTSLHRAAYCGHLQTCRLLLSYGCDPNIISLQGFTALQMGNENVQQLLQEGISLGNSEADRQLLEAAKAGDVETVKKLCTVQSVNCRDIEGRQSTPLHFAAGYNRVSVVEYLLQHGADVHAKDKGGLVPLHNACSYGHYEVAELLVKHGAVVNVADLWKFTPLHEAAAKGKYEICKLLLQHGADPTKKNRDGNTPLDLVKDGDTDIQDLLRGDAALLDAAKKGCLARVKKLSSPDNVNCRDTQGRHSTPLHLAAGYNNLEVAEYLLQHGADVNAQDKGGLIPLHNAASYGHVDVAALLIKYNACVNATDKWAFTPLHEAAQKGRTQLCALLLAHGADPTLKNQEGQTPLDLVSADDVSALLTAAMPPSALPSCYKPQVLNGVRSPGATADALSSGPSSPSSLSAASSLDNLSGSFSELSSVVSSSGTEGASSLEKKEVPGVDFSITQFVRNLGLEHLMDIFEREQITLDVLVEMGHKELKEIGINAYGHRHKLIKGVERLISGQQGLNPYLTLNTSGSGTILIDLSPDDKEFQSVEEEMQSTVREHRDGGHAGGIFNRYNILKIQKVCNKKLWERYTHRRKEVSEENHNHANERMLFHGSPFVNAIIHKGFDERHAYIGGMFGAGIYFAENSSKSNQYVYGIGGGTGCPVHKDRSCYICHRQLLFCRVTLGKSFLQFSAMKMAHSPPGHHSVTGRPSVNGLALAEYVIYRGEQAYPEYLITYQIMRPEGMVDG

Chain of Protein mono-ADP-ribosyltransferase PARP4 (Q9UKK3 whole entry, the tested form may be a part): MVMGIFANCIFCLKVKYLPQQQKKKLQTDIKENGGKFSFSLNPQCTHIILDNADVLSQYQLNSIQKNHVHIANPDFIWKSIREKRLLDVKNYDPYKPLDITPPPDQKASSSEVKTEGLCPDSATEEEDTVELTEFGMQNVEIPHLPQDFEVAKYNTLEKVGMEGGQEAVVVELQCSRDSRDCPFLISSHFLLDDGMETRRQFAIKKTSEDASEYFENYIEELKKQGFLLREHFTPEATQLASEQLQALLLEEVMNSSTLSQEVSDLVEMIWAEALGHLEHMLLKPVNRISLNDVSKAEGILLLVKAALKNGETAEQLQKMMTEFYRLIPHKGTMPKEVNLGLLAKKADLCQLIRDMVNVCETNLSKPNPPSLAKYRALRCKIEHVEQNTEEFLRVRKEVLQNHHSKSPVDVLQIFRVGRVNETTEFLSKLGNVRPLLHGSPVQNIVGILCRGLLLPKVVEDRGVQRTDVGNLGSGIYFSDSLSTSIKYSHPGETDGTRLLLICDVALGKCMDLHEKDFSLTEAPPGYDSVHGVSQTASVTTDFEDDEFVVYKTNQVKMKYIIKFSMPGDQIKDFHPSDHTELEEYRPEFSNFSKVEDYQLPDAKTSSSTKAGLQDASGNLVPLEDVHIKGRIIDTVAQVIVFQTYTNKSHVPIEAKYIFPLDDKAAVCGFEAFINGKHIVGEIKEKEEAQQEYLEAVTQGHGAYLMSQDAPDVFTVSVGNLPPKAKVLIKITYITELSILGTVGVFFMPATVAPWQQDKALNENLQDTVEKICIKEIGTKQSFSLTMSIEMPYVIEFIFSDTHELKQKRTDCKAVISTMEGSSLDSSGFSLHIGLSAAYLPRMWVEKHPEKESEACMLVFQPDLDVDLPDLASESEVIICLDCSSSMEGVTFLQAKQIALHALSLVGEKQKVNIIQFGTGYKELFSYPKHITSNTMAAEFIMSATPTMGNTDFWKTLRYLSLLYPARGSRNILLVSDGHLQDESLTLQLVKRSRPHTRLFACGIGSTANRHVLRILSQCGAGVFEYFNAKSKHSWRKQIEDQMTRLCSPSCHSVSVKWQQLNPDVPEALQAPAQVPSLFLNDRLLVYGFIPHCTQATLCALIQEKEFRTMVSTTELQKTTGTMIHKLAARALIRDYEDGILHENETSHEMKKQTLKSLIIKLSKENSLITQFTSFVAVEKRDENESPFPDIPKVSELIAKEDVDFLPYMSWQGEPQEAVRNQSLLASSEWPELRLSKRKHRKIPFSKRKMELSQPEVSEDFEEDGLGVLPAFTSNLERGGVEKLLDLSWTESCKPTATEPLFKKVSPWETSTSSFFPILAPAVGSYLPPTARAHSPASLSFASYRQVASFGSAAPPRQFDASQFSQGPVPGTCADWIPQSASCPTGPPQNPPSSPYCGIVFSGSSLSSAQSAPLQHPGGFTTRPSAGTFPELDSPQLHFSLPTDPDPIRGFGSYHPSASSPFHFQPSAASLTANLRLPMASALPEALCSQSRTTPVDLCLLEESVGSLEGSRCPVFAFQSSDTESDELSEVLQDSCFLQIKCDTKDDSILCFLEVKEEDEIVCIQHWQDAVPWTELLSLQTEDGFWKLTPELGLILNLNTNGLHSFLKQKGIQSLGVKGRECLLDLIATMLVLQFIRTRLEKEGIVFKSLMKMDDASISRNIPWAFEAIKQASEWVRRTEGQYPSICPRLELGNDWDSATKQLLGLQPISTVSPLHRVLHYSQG

Row | Compound | IC50 [1] | ΔTm [2] | IC50 [3] | IC50 [4]
1 | NC(=O)c1ccc(Oc2ccc(C(=O)O)cc2)cc1 | > 100 µM | 1.2 °C | 2.6 µM | > 100 µM
2 | NC(=O)c1ccc(Oc2ccc(C=O)cc2)cc1 | > 100 µM | 0.04 °C | > 10 µM | > 100 µM
3 | NC(=O)c1ccc(OCc2ccccc2F)cc1 | > 100 µM | 0.76 °C | 3.3 µM | > 100 µM
4 | COc1ccc(C(N)=O)cc1 | 65 µM | 0.15 °C | > 10 µM | > 100 µM

Reference: ChEMBL document CHEMBL4270552, “4-(Phenoxy) and 4-(benzyloxy)benzamides as potent and selective inhibitors of mono-ADP-ribosyltransferase PARP10/ARTD10” (Eur J Med Chem, 2018)
